Where a name gives a salt, the structure may show the parent alone. Read-outs that look alike come from different tables or passages of the source.
Columns and labels:
[1] = system: NCI-H292 lung cancer cells; experiment: FDA drug screening, complete media vs cholesterol-free media without statin (TABLE 1); type: cell-based, human
[2] = system: NCI-H292 lung cancer cells; experiment: FDA drug screening, complete media vs cholesterol-free media with simvastatin (TABLE 2); type: cell-based, human
[3] = NCI-H292 cells, cholesterol-free media without statin, FDA drug library screen
[4] = NCI-H292 cells, complete media, FDA drug library screen
[5] = complete vs cholesterol-free media, >0 enhanced anti-cancer activity, about 0 neutral, <0 antagonist
[6] = NCI-H292 cells, cholesterol-free media with simvastatin 0.04 μM, FDA drug library screen (TABLE 2)
[7] = NCI-H292 cells, complete media, FDA drug library screen (TABLE 2)
[8] = complete media minus cholesterol-free media + simvastatin (0.04 μM), >0 enhanced anti-cancer activity, about 0 neutral, <0 antagonist
[9] = Complete minus Cholesterol-free, greater than 0 enhanced anti-cancer activity, about 0 neutral, below 0 antagonists
[10] = NCI-H292 cells in cholesterol-free media without statin
[11] = NCI-H292 cells in complete media
[12] = NCI-H292 cells, FDA drug library screen, cholesterol-free media with simvastatin 0.04 μM
[13] = NCI-H292 cells, FDA drug library screen, complete media
[14] = complete media minus cholesterol-free media + simvastatin, >0 enhanced anti-cancer activity, about 0 neutral, <0 antagonist
[15] = NCI-H292 cells, cholesterol-free media without statin
[16] = complete vs cholesterol-free media, greater than 0 enhanced anti-cancer activity, about 0 neutral, below 0 antagonists
[17] = NCI-H292 cells, drug in cholesterol-free media with simvastatin 0.04 μM
[18] = NCI-H292 cells, drug in complete media
[19] = complete media vs cholesterol-free media + simvastatin (0.04 μM), >0 enhanced anti-cancer activity, about 0 neutral, <0 antagonist
[20] = Complete minus Cholesterol-free, greater than 0 enhanced anti-cancer activity, about 0 neutral, below 0 antagonist
[21] = NCI-H292 cells, FDA drug library screen, cholesterol-free media without statin

C[C@@H](O)[C@H]1C(=O)N2C(C(=O)O)=C(S[C@@H]3CN[C@H](C(=O)N(C)C)C3)[C@H](C)[C@H]12 [Meropenem (trihydrate)]
Cholesterol-free [1, 3]: 1.169
Complete [1, 4]: 1.522
Difference [1, 5]: 0.35
Cholesterol-free media + simvastatin (0.04 μM) [2, 6]: 1.099
Complete Media [2, 7]: 1.05
Difference [2, 8]: −0.05

Disodium succinate
Cholesterol-free [1]: 1.636
Complete [1]: 0.8171
Difference [1]: −0.82
Cholesterol-free media + simvastatin (0.04 μM) [2]: 1.636
Complete Media [2]: 1.676
Difference [2]: 0.04

CN[C@@H]1[C@H](O)[C@H](NC)[C@H]2O[C@@]3(O)C(=O)C[C@@H](C)O[C@H]3O[C@@H]2[C@H]1O [Spectinomycin (dihydrochloride)]
Cholesterol-free [1, 3]: 0.9841
Complete [1, 4]: 1.077
Difference [1, 5]: 0.09
Cholesterol-free media + simvastatin (0.04 μM) [2, 6]: 1.126
Complete Media [2, 7]: 1.142
Difference [2, 8]: 0.02

COc1cc2c(cc1Cc1cccc(Cl)c1F)c(=O)c(C(=O)O)cn2[C@H](CO)C(C)C [Elvitegravir]
Difference [1, 9]: −0.83
Cholesterol-free [1, 10]: 1.777
Complete [1, 11]: 0.9448
Cholesterol-free media + simvastatin (0.04 μM) [2, 12]: 1.032
Complete Media [2, 13]: 1.435
Difference [2, 14]: 0.40

NCCCCCC(=O)O [6-Aminocaproic acid]
Cholesterol-free [1]: 1.11
Complete [1]: 1.715
Difference [1]: 0.60
Cholesterol-free media + simvastatin (0.04 μM) [2]: 1.226
Complete Media [2]: 1.745
Difference [2]: 0.52

O=C1c2cccc3c2[C@H](CCC3)CN1[C@@H]1CN2CCC1CC2 [Palonosetron (Hydrochloride)]
Cholesterol-free [1, 15]: 1.075
Complete ([1]; NCI-H292 cells, complete media): 0.7009
Difference [1, 16]: −0.37
Cholesterol-free media + simvastatin (0.04 μM) [2, 17]: 1.184
Complete Media [2, 18]: 0.927
Difference [2, 19]: −0.26

CCCCCCNC(=O)n1cc(F)c(=O)[nH]c1=O [Carmofur]
Cholesterol-free [1, 15]: 0.5487
Complete ([1]; NCI-H292 cells, complete media): 0.2009
Difference [1, 16]: −0.35
Cholesterol-free media + simvastatin (0.04 μM) [2, 17]: 0.7692
Complete Media [2, 18]: 0.6005
Difference [2, 19]: −0.17

CN(C)CCOC(C)(c1ccccc1)c1ccc(Cl)cc1 (stereo not drawn) [Chlorphenoxamine]
Cholesterol-free [1, 15]: 1.303
Complete ([1]; NCI-H292 cells, complete media): 0.9903
Difference [1, 16]: −0.31
Cholesterol-free media + simvastatin (0.04 μM) ([2]; NCI-H292 cells, FDA library drug in cholesterol-free media with simvastatin 0.04 μM): 1.703
Complete Media ([2]; NCI-H292 cells, FDA library drug in complete media): 1.16
Difference [2, 19]: −0.54

CC(N)C12CC3CC(CC(C3)C1)C2 (stereo not drawn) [Rimantadine (hydrochloride)]
Cholesterol-free [1, 3]: 0.8509
Complete [1, 4]: 1.649
Difference [1, 5]: 0.80
Cholesterol-free media + simvastatin (0.04 μM) [2, 12]: 0.9474
Complete Media [2, 13]: 0.8656
Difference [2, 19]: −0.08

O=c1ccn([C@@H]2O[C@H](COP(=O)([O-])OP(=O)([O-])OP(=O)([O-])OP(=O)([O-])OC[C@H]3O[C@@H](n4ccc(=O)[nH]c4=O)[C@H](O)[C@@H]3O)[C@@H](O)[C@H]2O)c(=O)[nH]1.[Na+].[Na+].[Na+].[Na+] [Diquafosol (tetrasodium)]
Difference [1, 20]: −0.16
Cholesterol-free [1, 21]: 0.9096
Complete [1, 13]: 0.7536
Cholesterol-free media + simvastatin (0.04 μM) [2, 12]: 1.438
Complete Media [2, 13]: 1.601
Difference [2, 14]: 0.16

CC(C(=O)O)c1cccc(Oc2ccccc2)c1 (stereo not drawn) [Fenoprofen (Calcium hydrate)]
Difference ([1]; Complete minus Cholesterol-free, >0 enhanced anti-cancer activity, about 0 neutral, <0 antagonist): −0.23
Cholesterol-free [1, 15]: 1.081
Complete ([1]; NCI-H292 cells, complete media): 0.8539
Cholesterol-free media + simvastatin (0.04 μM) [2, 17]: 1.224
Complete Media [2, 18]: 1.032
Difference [2, 19]: −0.19

NC(=O)c1ncn([C@@H]2O[C@H](CO)[C@@H](O)[C@H]2O)c1O [Mizoribine]
Difference [1, 20]: −0.10
Cholesterol-free [1, 21]: 0.879
Complete [1, 13]: 0.7795
Cholesterol-free media + simvastatin (0.04 μM) [2, 12]: 1.118
Complete Media [2, 13]: 0.9745
Difference [2, 19]: −0.14

CC(=O)NCCCS(=O)(=O)O [Acamprosate (calcium)]
Difference ([1]; Complete minus Cholesterol-free, […]): 0.03
Cholesterol-free [1, 3]: 1.751
Complete [1, 4]: 1.779
Cholesterol-free media + simvastatin (0.04 μM) [2, 6]: 1.34
Complete Media [2, 7]: 1.328
Difference ([2]; complete media minus cholesterol-free media + simvastatin (0.04 μM), […]): −0.01

Trimipramine (maleate)
Difference [1, 9]: −0.51
Cholesterol-free [1, 10]: 1.537
Complete [1, 11]: 1.022
Cholesterol-free media + simvastatin (0.04 μM) [2, 12]: 1.033
Complete Media [2, 13]: 1.193
Difference [2, 14]: 0.16

From US20250144067A1, “PERSONALIZED STARVATION THERAPY FOR CANCER” (Faeth Therapeutics, Inc., priority 2021, published 2025)
